# Data as given in patent US20050053931A1, “Method for the diagnosis and therapy of renal cell carcinoma” (priority 2001, published 2005).
# Residues, ends and D or L forms follow the SMILES beside them. *: point of attachment. Cbz = O=C(OCc1ccccc1)*
# Experiments:
# [1] = test system: glioma cells; conditions: upon adenoviral Nbk gene transfer with Ad-TreNbk-tTA; cited from earlier work
# [2] = test system: mycNbk expression in DU145 prostate carcinoma cells; test: Conditional expression of mycNbk after Ad-TreNbk-tTA infection (Western blot); format: cell-based, human; conditions: 24 h after infection with Ad-TreNbk-tTA at 25 MOI
# Text: For regulable expression of the pro-apoptotic gene Nbk in human cells, an adenoviral vector based on the adenovirus serotype 5 backbone was constructed. In this construct, the E3 region was replaced by the expression cassette for the tTA and the E1 region was replaced by an expression cassette for Nbk. To allow for convenient detection of the exogenous Nbk, a myc tag was inserted at the N-terminus of the human Nbk cDNA. Constitutive expression of the tTA was achieved by putting the tTA under the control of a CMV promoter. In the absence of tetracyclin or doxycyclin the tTA fusion protein binds via the TetR portion to the TRE in the PhCMV* promoter and activates via the VP16AD portion the transcription of the mycNbk. In the presence of tetra- or doxycyclin Nbk expression is repressed and switched off.
# The recombinant adenovirus Ad-TreNbk-tTA (FIG. 7A) was employed for expression of the myc tagged Nbk (mycNbk) in a doxycyclin dependent manner. […] Apart from DU145, Nbk could be strongly expressed by the use of this adenoviral vector 24 h after transduction in a panel of other carcinomas or non-epithelial tumor cells, i.e. sarcoma, glioma and other mesenchymal cell types.
# Apoptosis was determined by the use of a modified cell cycle analysis technique that relies on the measurement of cellular DNA content on the single cell level by flow cytometry. […]
SMILES,Nbk expression levels [1],sensitivity for Nbk-induced apoptosis [1],doxycyclin concentration at which Nbk expression is almost completely suppressed [2]
CC(C)C[C@@H](C=O)NC(=O)[C@H](CC(C)C)NC(=O)[C@H](CC(C)C)NC(=O)OCc1ccccc1 [MG132] (Cbz-Leu-Leu-Leu-aldehyde),enhanced Nbk expression levels,increased sensitivity for Nbk-induced apoptosis,
C[C@H]1c2cccc(O)c2C(O)=C2C(=O)[C@]3(O)C(O)=C(C(N)=O)C(=O)[C@@H](N(C)C)[C@@H]3[C@@H](O)[C@@H]21 [doxycyclin],,,≥ 10 ng/mL
